Results as given in patent publication US7033829B2, “Method to inhibit cell growth using oligonucleotides” (Trustees of Boston University, priority 2000, dated 2006).
Oligonucleotides are written 5' to 3', each unit as a sugar letter and its base; * is a phosphorothioate linkage, no mark a phosphodiester; rarer units and linkages stand in square brackets, end groups in braces. Plain capitals give the bases only. d = 2'-deoxy (DNA); {P} = phosphate

Key:
[1] = tested on: mitochondrial enzymes ATPase, cytochrome c oxidase and NADH dehydrogenase genes; assay: DNA microarray / RT-PCR / northern of mitochondrial genes in SCC12F; format: cell-based, human
From the text: Exposure of keratinocytes to UVB irradiation affects the expression of genes involved in cell cycle arrest, DNA repair and cytokine production. Single-stranded oligonucleotides sharing sequence homology with the telomere 3′ overhang, when introduced into cells, mimic these UV effects. To identify other genes that may be similarly modulated, cells of keratinocyte origin (SCC12F; a human epidermal squamous cell carcinoma line provided by Dr. James Rheinwald of Harvard University) were exposed to solar simulated irradiation (SSR) (20 mJ/cm^2, measured at 285±5 nm), to an 11-base oligonucleotide (pGTTAGGGTTAG; SEQ ID NO:5) homologous to the telomere overhang (T-oligo), or to a complementary sequence as control [pCTAACCCTAAC; (SEQ ID NO:9) control oligonucleotide]. […] These are mitochondrial-transcribed genes whose encoded proteins participate in cellular respiration.

[2] = tested on: caspase-3; assay: Caspase-3 activity in Jurkat cells; format: cell-based, human; details: 40 μM
Method: Duplicate cultures of Jurkat cells were cultured and treated with oligonucleotides as described above. At 48, 72 and 96 hours of treatment, cells were collected by centrifugation, washed and then the pellet lysed by repeated cycles of freeze-thawing. The lysate was then clarified by centrifugation and the supernatant used for protein analysis and Caspase-3 activity assay using the components and instructions of the Colorimetric CaspACE Assay System from Promega (Madison, Wis.). The assay uses the substrate Ac-DEVD-pNA and calorimetrically measures release of free pNA. Caspase activity is expressed as pmol of pNA produced/hour/μg protein.
Apoptosis was also detected by the DNA end-labeling TUNEL assay. Jurkat cells were treated with 40 μM oligonucleotides for 72 hours. Cells were then collected and the TUNEL assay was carried out. […] The activation of caspase-3, another marker of apoptosis, was also examined. Duplicate cultures of Jurkat cells were cultured and treated with oligonucleotides as described above for 48, 72 and 96 hours and caspase-3 activity was measured. The activity of caspase-3 was 50% higher after 48 hours of treatment with the telomere overhang homolog, compared to controls, and 3–4 fold higher in these cells at 72 and 96 hours (FIG. 27). Thus, the oligonucleotide homologous to the telomere 3′ overhang specifically induces an S phase arrest and apoptosis in these cells.

[3] = tested on: E2F1, p73, Mart-1, tyrosinase, TRP-1 and gp-100; assay: Western blot of MM-AN melanoma cells; format: cell-based, human
Method: Proteins were analyzed by denaturing polyacrylamide gel electrophoresis (SDS-PAGE), using 10% polyacrylamide, and western blot analysis was done with an E2F1-specific monoclonal antibody (KH95 Santa Cruz Biotechnology, Santa Cruz, Calif.), and p73 analyzed using a polyclonal antibody (AB-4 from Oncogene Research Products, San Diego, Calif.). […] In order to determine the contribution of p73 to cell death, MM-AN melanoma cells were stably transfected with a dominant negative p73 (p73DN) (Irwin et al., Nature 402:645–648) construct or empty vector as a control (p73^DN-containing vector a gift from Dr. William Kaelin, Dana Farber Institute, Boston) and paired cultures were supplemented with 40 μM 11mer-1 or diluent alone, then harvested at 72 hours for FACS analysis. […] The above-mentioned differentiation markers are expressed in normal human melanocytes. It appears that the loss of expression of these antigens is a mechanism that a subset of human melanomas uses to escape immunosurveillance defenses. Several peptides from these antigens are targets of tumor infiltrating cytotoxic lymphocytes. Encouraging results have been obtained in vivo with different vaccination strategies using antigenic peptides from the above antigens.

[4] = tested on: Normal human neonatal fibroblasts; assay: Cell growth of normal neonatal fibroblasts; format: cell-based; details: 100 μM
Method: Normal human neonatal fibroblasts were plated in Falcon P35 culture dishes at a density of 9×10^4 cells/dish. The culture medium was DME+10% calf serum, 2 ml per plate. One day after plating, cultures were supplemented with either 100 μM T2 in DME or 100 μM A2 in DME, or water (control). Two plates were collected and counted before the additions to give a starting, or “day 0,” reading. Duplicate plates of each condition were harvested through five days after addition of the supplements and cell number determined. All cell counts were done by Coulter™ Counter.
In a second experiment, normal human neonatal fibroblasts were plated and cultured, as described above in Example 1 for SCC12F cells. Cultures were supplemented with either 100 μM T2 or water (control), and cells were harvested for cell counts. The cell yield in fibroblast cultures treated with T2 was reduced by 40% compared to that of paired control cultures after three days (FIG. 8). This corresponds to 4 population doublings in this time for control cells, compared with 3.6 doublings for T2-treated cells.

[5] = tested on: p53-null H1299 lung carcinoma cells; assay: Cell growth of p53-null H1299 cells; format: cell-based, human; details: 100 μM; days 1–4
From the text: Both the GADD 45 and SDI 1 genes are known to be transcriptionally regulated by the tumor suppressor protein p53. After UV- and γ-irradiation, as well as treatment of cells with DNA-damaging chemical agents, there is a rapid stabilization, phosphorylation and nuclear accumulation of p53 after which this protein binds to specific promoter consensus sequences and modulates the transcription of regulated genes. […] In order to determine whether the inhibitory effect of the dinucleotide pTpT on cell proliferation is mediated in part through p53, the growth response of a p53 null cell line, H1299 lung carcinoma cells, was examined. The p53-null H1299 cells (Sanchez, Y. et al., Science 271:357–360 (1996)) were maintained in DMEM with 10% calf serum. Preconfluent cultures were given fresh medium supplemented with either 100 μM pTpT or diluent. Cells were collected on consecutive days by trypsinization, and counted by Coulter™ counter.

[6] = tested on: TNF-α gene; assay: TNFα promoter CAT reporter transgene in skin; format: in vivo, mice; details: intracutaneous pTpT 100 μM; LPS 1 μg/ml
Method: In another experiment, TNF-α gene activation was measured by utilizing mice carrying a CAT reporter transgene bearing the entire TNFα promoter and 3′-untranslated region. Transgenic mice were subjected to the following treatment prior to skin assay for CAT expression: UVB irradiation (200–700 J/m^2), intracutaneous injection of pTpT (100 μM); lipopolysaccharide (LPS 1 μg/ml) as positive control, or vehicle alone.

[7] = tested on: Cu/Zn superoxide dismutase; assay: Cu/Zn superoxide dismutase mRNA in fibroblasts; format: cell-based; details: 48 and 72 hours after treatment

Row | Substance | downregulation of 8 genes (microarray) [1] [%] | genes downregulated as early as ([1]; RT-PCR and northern blot) [h] | caspase-3 activity higher compared to controls ([2]; 72 and 96 hours) | caspase-3 activity higher compared to controls ([2]; 48 hours) [%] | induction of E2F1 and p73 ([3]; 40 μM) | differentiation markers Mart-1, tyrosinase, TRP-1 and gp-100 ([3]; 48–72 hours after treatment) | cell yield reduced compared to paired control cultures ([4]; after three days) [%] | population doublings ([4]; three days (control 4)) | proliferation compared to diluent-treated controls [5] | CAT activity in skin [6] | increase of Cu/Zn superoxide dismutase mRNA levels [7]
1 | pGTTAGGGTTAG (DNA {P}-dGdTdTdAdGdGdGdTdTdAdG) [SEQ ID NO: 5] | > 50 | 48 | 3–4 fold | 50 | the same pattern of induction for E2F1 and p73 as observed for Jurkat cells | upregulated |  |  |  |  | 
2 | thymidine dinucleotide [pTpT] |  |  |  |  |  |  | 40 | 3.6 | no inhibition of proliferation | CAT activity was detected | greater than 3 fold
